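Step 1: Grow cells in 96-well plates. Step 2: Expose to compound for 48 hours at 5 concentrations. Step 3: Interpolate endpoints linearly; if unreached, use highest concentration. GI50 is the concentration that inhibits growth by half. TGI marks complete inhibition of growth.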
Assays:
Test in all cases: NCI tumour cell line growth inhibition, 48 h
CAKI-1 renal = test system: CAKI-1 renal
MALME-3M melanoma = test system: MALME-3M melanoma
PC-3 prostate = test system: PC-3 prostate
786-0 renal = test system: 786-0 renal
LOX IMVI melanoma = test system: LOX IMVI melanoma
MDA-MB-435 = test system: MDA-MB-435
COLO 205 colon = test system: COLO 205 colon
UO-31 renal = test system: UO-31 renal
SK-MEL-28 melanoma = test system: SK-MEL-28 melanoma
SK-MEL-5 melanoma = test system: SK-MEL-5 melanoma
A498 renal = test system: A498 renal
DU-145 prostate = test system: DU-145 prostate
SR leukemia = test system: SR leukemia
SK-OV-3 ovarian = test system: SK-OV-3 ovarian
IGROV1 ovarian = test system: IGROV1 ovarian
M14 melanoma = test system: M14 melanoma
SNB-75 CNS = test system: SNB-75 CNS
HCT-15 colon = test system: HCT-15 colon
A549 NSCLC = test system: A549 NSCLC
HS 578T breast = test system: HS 578T breast
NCI-H522 lung = test system: NCI-H522 lung
ACHN renal = test system: ACHN renal
OVCAR-5 ovarian = test system: OVCAR-5 ovarian
UACC-257 melanoma = test system: UACC-257 melanoma
NCI-H226 lung = test system: NCI-H226 lung
NCI-H23 lung = test system: NCI-H23 lung
HOP-62 NSCLC = test system: HOP-62 NSCLC
MCF7 breast = test system: MCF7 breast
SF-268 CNS = test system: SF-268 CNS
TK-10 renal = test system: TK-10 renal
MDA-MB-231 breast = test system: MDA-MB-231 breast
HCC-2998 colon = test system: HCC-2998 colon
BT-549 breast = test system: BT-549 breast
T-47D breast = test system: T-47D breast
OVCAR-4 ovarian = test system: OVCAR-4 ovarian
HL-60(TB) leukemia = test system: HL-60(TB) leukemia
K-562 leukemia = test system: K-562 leukemia
UACC-62 melanoma = test system: UACC-62 melanoma
KM12 colon = test system: KM12 colon
CCRF-CEM leukemia = test system: CCRF-CEM leukemia
SW-620 colon = test system: SW-620 colon
EKVX NSCLC = test system: EKVX NSCLC
RXF 393 renal = test system: RXF 393 renal
NCI-H460 lung = test system: NCI-H460 lung
HCT-116 colon = test system: HCT-116 colon
SNB-19 CNS = test system: SNB-19 CNS
HOP-92 NSCLC = test system: HOP-92 NSCLC
NCI/ADR-RES ovarian = test system: NCI/ADR-RES ovarian
OVCAR-8 ovarian = test system: OVCAR-8 ovarian
SK-MEL-2 melanoma = test system: SK-MEL-2 melanoma
OVCAR-3 ovarian = test system: OVCAR-3 ovarian
SF-539 CNS = test system: SF-539 CNS
RPMI-8226 leukemia = test system: RPMI-8226 leukemia
MOLT-4 leukemia = test system: MOLT-4 leukemia
SF-295 CNS = test system: SF-295 CNS
SN12C renal = test system: SN12C renal
U251 CNS = test system: U251 CNS

`C[C@H]1CCC/C=C/[C@@H]2C[C@H](O)C[C@H]2[C@H](O)[C@@H](S(=O)C[C@@H](N)C(=O)O)CC(=O)O1` (stereo partly drawn) showed a GI50 (CAKI-1 renal) of 0.21 µM, a TGI (MALME-3M melanoma) of 0.0257 µM and a TGI (PC-3 prostate) greater than 26.2 µM. For the same molecule, the GI50 (786-0 renal) was less than 0.0181 µM, the GI50 (LOX IMVI melanoma) was 0.0203 µM and the TGI (LOX IMVI melanoma) was 0.0636 µM. The GI50 (MDA-MB-435) was 0.048 µM, the TGI (MDA-MB-435) was greater than 100 µM and the GI50 (COLO 205 colon) was 0.0144 µM. The TGI (COLO 205 colon) was 0.0293 µM, the GI50 (UO-31 renal) was 0.037 µM and the TGI (UO-31 renal) was 1.62 µM. The GI50 (SK-MEL-28 melanoma) was 0.0291 µM, the TGI (SK-MEL-28 melanoma) was greater than 100 µM and the GI50 (SK-MEL-5 melanoma) was 0.0209 µM. For the same molecule, the TGI (SK-MEL-5 melanoma) was 0.107 µM, the GI50 (A498 renal) was 0.0309 µM and the TGI (A498 renal) was 0.149 µM. The GI50 (DU-145 prostate) was 0.434 µM, the TGI (DU-145 prostate) was greater than 100 µM and the GI50 (SR leukemia) was 0.082 µM. For the same molecule, the GI50 (SK-OV-3 ovarian) was 0.117 µM, the TGI (SK-OV-3 ovarian) was greater than 82.8 µM and the GI50 (IGROV1 ovarian) was 0.238 µM. For the same molecule, the TGI (IGROV1 ovarian) was 19.1 µM, the GI50 (M14 melanoma) was 0.0429 µM and the TGI (M14 melanoma) was greater than 100 µM. For the same molecule, the TGI (SNB-75 CNS) was 0.0194 µM, the GI50 (HCT-15 colon) was 0.137 µM and the TGI (HCT-15 colon) was 2.26 µM. For the same molecule, the TGI (A549 NSCLC) was greater than 100 µM, the GI50 (HS 578T breast) was 0.0152 µM and the TGI (HS 578T breast) was greater than 100 µM. The GI50 (NCI-H522 lung) was 0.175 µM, the TGI (NCI-H522 lung) was 0.87 µM and the GI50 (ACHN renal) was 0.0833 µM. For the same molecule, the TGI (ACHN renal) was 0.669 µM, the GI50 (OVCAR-5 ovarian) was greater than 100 µM and the TGI (OVCAR-5 ovarian) was greater than 100 µM. It also gave a GI50 (UACC-257 melanoma) of less than 0.0182 µM, a TGI (UACC-257 melanoma) greater than 100 µM and a GI50 (NCI-H226 lung) of 0.0193 µM. For the same molecule, the GI50 (NCI-H23 lung) was 0.0862 µM, the TGI (NCI-H23 lung) was 8.13 µM and the GI50 (HOP-62 NSCLC) was 0.241 µM. It also gave a TGI (HOP-62 NSCLC) greater than 100 µM, a GI50 (MCF7 breast) of 0.0303 µM and a GI50 (SF-268 CNS) of 0.0207 µM. It also gave a TGI (SF-268 CNS) greater than 19.9 µM, a GI50 (TK-10 renal) of 0.199 µM and a GI50 (MDA-MB-231 breast) of 0.0251 µM. For the same molecule, the TGI (MDA-MB-231 breast) was 0.0528 µM, the GI50 (HCC-2998 colon) was 0.0303 µM and the TGI (HCC-2998 colon) was 0.256 µM. For the same molecule, the GI50 (BT-549 breast) was 0.0862 µM, the TGI (BT-549 breast) was greater than 100 µM and the GI50 (T-47D breast) was 0.244 µM. For the same molecule, the TGI (T-47D breast) was 0.992 µM, the GI50 (OVCAR-4 ovarian) was 0.0445 µM and the TGI (OVCAR-4 ovarian) was greater than 75 µM. For the same molecule, the GI50 (HL-60(TB) leukemia) was 0.142 µM, the GI50 (K-562 leukemia) was 0.884 µM and the TGI (K-562 leukemia) was greater than 100 µM. For the same molecule, the GI50 (UACC-62 melanoma) was 0.0297 µM, the TGI (UACC-62 melanoma) was greater than 100 µM and the GI50 (KM12 colon) was less than 0.014 µM. It also gave a TGI (KM12 colon) of 0.0605 µM, a GI50 (CCRF-CEM leukemia) of 0.0508 µM and a TGI (CCRF-CEM leukemia) of 50.2 µM. The GI50 (SW-620 colon) was 0.0533 µM, the GI50 (EKVX NSCLC) was 0.0842 µM and the TGI (EKVX NSCLC) was greater than 52.3 µM. It also gave a GI50 (RXF 393 renal) of 20.2 µM, a TGI (RXF 393 renal) of 86.7 µM and a GI50 (NCI-H460 lung) of 0.245 µM. The TGI (NCI-H460 lung) was greater than 100 µM, the GI50 (HCT-116 colon) was 0.0325 µM and the TGI (HCT-116 colon) was 1.69 µM. It also gave a TGI (SNB-19 CNS) greater than 100 µM, a GI50 (HOP-92 NSCLC) of 0.0428 µM and a TGI (HOP-92 NSCLC) of 1.65 µM. It also gave a GI50 (NCI/ADR-RES ovarian) of less than 0.0165 µM, a TGI (NCI/ADR-RES ovarian) of 0.384 µM and a GI50 (OVCAR-8 ovarian) of 0.0323 µM. For the same molecule, the TGI (OVCAR-8 ovarian) was 2.84 µM, the GI50 (SK-MEL-2 melanoma) was 1.29 µM and the GI50 (OVCAR-3 ovarian) was 0.0425 µM. It also gave a GI50 (SF-539 CNS) of 0.0358 µM, a TGI (SF-539 CNS) greater than 100 µM and a GI50 (RPMI-8226 leukemia) of 0.395 µM. For the same molecule, the TGI (RPMI-8226 leukemia) was greater than 95.3 µM, the GI50 (MOLT-4 leukemia) was 0.0464 µM and the GI50 (SF-295 CNS) was 0.109 µM. It also gave a TGI (SF-295 CNS) greater than 100 µM, a GI50 (SN12C renal) of 0.156 µM and a TGI (SN12C renal) of 1.83 µM. The GI50 (U251 CNS) was 0.0709 µM and the TGI (U251 CNS) was greater than 100 µM.
